According to US20200246316A1, “METHODS OF TREATING POST-SURGICAL PAIN WITH A THIAZOLINE ANTI-HYPERALGESIC AGENT” (CERSCI THERAPEUTICS, INC., priority 2019, published 2020):
“Also recorded” adds a separate entry of the source. Structures can show the parent of a compound that is named as a salt. Where two headings read alike, the source gives them in different places.

Assays:
pKa values = format: physicochemical
mouse incisional model = assay: Mouse incisional model (mimicking the Brennan protocol); format: in vivo; conditions: 10 mg/kg IP QD, Days 1 and 3 after incision
Procedure: In a mouse incisional model (mimicking the Brennan protocol), animals were baselined for mechanical thresholds prior to incision and then given a daily dose of Compound 1 (10 mg/kg IP QD) or vehicle for 7 days.

[1] = test system: mouse model of severe incision; assay: Mouse model of severe incision; format: in vivo; conditions: 10 mg/kg IP daily for 15 days; Days 1, 3, 6, 8, 10, 13, 15 and 21 after incision; FIG. 13; mono-hydrochloride
Text: Two incisional pain models were used to assess Compound 1 effects on hyperalgesia. The first model is referred to as the Brennan model in which, under anesthesia, a 1 cm longitudinal incision to the skin and underlying fascia of a rat hindpaw is made. The second is a variation but is a more invasive procedure in which the skin and muscle are spread apart using forceps which creates a longer-lasting hypersensitivity.
In a mouse model of severe incision (tissue and muscle spread with forceps), animals were at baseline for mechanical thresholds prior to incision and then given a daily dose of Compound 1 (10 mg/kg IP) or vehicle for 15 days.

[2] = Effect of food on oral bioavailability in rats; format: in vivo, rat
Procedure: The effect of food on oral bioavailability was determined.

[3] = Dog pharmacokinetics after single PO (10 mg/kg) and IV (3 mg/kg) dose; format: in vivo; conditions: for bioavailability: 10 mg/kg PO vs 3 mg/kg IV
Procedure: The objective of the first single dose non-GLP study in dogs was to determine the pharmacokinetics and bioavailability of Compound 1 after a single oral (gavage) or single intravenous (IV) dose in dogs. The test article formulation was administered to three male dogs orally via gavage at a dose level of 10 mg/kg (dosing volume of 2 mL/kg body weight). Following a wash-out period of a minimum of three days, the same three dogs were administered the test article formulation via an IV bolus push over approximately 1-2 minutes at a dose level of 3 mg/kg (dosing volume of 0.5 mL/kg). The vehicle for oral gavage dosing was 0.5% HPMC; the vehicle for IV injection was sterile phosphate buffered saline (PBS; pH 7.4). […] Animals were returned to quarantine after the last blood collection.
After IV administration at 3 mg/kg, the test article was quantifiable up to the 4-hour time point for all animals and tmax was about 5 minutes. Since the test article was not quantifiable at the 6-hour and subsequent time points for IV administration, […] and bioavailability could not be calculated.

[4] = Dog 7-day repeat dose PO study; format: in vivo; conditions: plasma, N = 1
Procedure: The objective was to develop a preliminary toxicity profile of Compound 1 following daily oral (gavage) administration for 7 days to male and female dogs to support dose selection for a 28-day toxicity study in dogs. Doses were selected based on the results of the MTD phase. Dose levels were 0 (Vehicle Control), 200, 350 and 400 mg/kg (1 dog/sex/group). The vehicle was 0.5% aqueous HPMC.
The animals used in this study were returned to the holding colony

[5] = Metabolic stability in hepatocytes; format: in vitro ADME
Text: (§1) Further metabolism work in additional species will be undertaken.

Stability in plasma = format: in vitro ADME
Text: Upon administration, Compound 1 is stable in both plasma and hepatocytes from rat, dog and human.

[6] = Stability in plasma from a variety of species; format: in vitro ADME
Text: as §1

in vivo = conditions: rat, po, 100 mg/kg; for concentration at 1 h: 1 h post-dose; for concentration at 2 h: 2 h post-dose; for concentration at 0.5 h: 0.5 h post-dose
Procedure: In both assays, a deuterated (Compound 1-d4) internal standard was used.
The objective of this non-GLP study was to determine the pharmacokinetics of Compound 1 after a single oral (gavage) dose in rats, and to determine if Compound 1 undergoes epimerization in the rat. Compound 1 was administered to CD® IGS [Crl:CD(SD)] (Sprague Dawley) rats (5/sex/group) as a single oral gavage dose of 100 mg/kg in a vehicle of 0.5% aqueous HPMC. Rats were dosed at a dose volume of 10 mL/kg body weight.

BCRP = BCRP (Homo sapiens, UniProt Q9UNQ0); assay: Inhibition of efflux (ABC) transporters
BCRP, sequence (Q9UNQ0 whole entry): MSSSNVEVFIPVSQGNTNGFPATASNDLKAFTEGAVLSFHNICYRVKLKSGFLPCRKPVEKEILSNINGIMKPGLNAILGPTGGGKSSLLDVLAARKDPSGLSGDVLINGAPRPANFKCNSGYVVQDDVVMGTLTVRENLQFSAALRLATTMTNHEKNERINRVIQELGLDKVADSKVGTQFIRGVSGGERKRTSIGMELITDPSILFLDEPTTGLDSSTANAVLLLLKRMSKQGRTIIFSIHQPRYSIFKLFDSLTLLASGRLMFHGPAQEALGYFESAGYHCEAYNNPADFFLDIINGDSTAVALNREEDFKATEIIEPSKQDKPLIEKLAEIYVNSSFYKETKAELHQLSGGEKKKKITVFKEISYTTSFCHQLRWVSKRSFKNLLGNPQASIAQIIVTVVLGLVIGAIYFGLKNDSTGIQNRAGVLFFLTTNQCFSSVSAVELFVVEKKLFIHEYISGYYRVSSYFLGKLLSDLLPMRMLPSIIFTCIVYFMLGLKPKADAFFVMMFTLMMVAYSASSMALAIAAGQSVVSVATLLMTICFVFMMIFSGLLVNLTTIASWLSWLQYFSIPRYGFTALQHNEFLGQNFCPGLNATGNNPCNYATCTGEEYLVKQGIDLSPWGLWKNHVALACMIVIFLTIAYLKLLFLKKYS

[7] = female, 200 mg/kg, Day 1, 200 mg/kg PO, F
[8] = female, 200 mg/kg, Day 7, 200 mg/kg PO, F
[9] = female, 350 mg/kg, Day 1, 350 mg/kg PO, F
[10] = female, 350 mg/kg, Day 7, 350 mg/kg PO, F
[11] = female, 400 mg/kg, Day 1, 400 mg/kg PO, F
[12] = female, 400 mg/kg, Day 7, 400 mg/kg PO, F
[13] = male, 200 mg/kg, Day 1, 200 mg/kg PO, M
[14] = male, 200 mg/kg, Day 7, 200 mg/kg PO, M
[15] = male, 350 mg/kg, Day 1, 350 mg/kg PO, M
[16] = male, 350 mg/kg, Day 7, 350 mg/kg PO, M
[17] = male, 400 mg/kg, Day 1, 400 mg/kg PO, M
[18] = male, 400 mg/kg, Day 7, 400 mg/kg PO, M
[19] = female, Sprague Dawley, Compound 1 Concentration in rat plasma, 100 mg/kg single PO, individual animals
[20] = female, Sprague-Dawley (CD IGS, Crl:CD(SD))
[21] = male, Sprague Dawley, Compound 1 Concentration in rat plasma, 100 mg/kg single PO, individual animals
[22] = male, Sprague Dawley, Compound 1 Concentration in rat plasma, 100 mg/kg single PO, Average
[23] = male, Sprague-Dawley (CD IGS, Crl:CD(SD))

CC1(C)SC(Nc2ccccc2O)=N[C@@H]1C(=O)O [Compound 1, (R)-2-(2-hydroxyphenylamino)-5,5-dimethyl-4,5-dihydrothiazole-4-carboxylic acid mono-hydrochloride]
pKa (pKa values; Acidic (first)): 2.29 ± 0.02 | pKa (pKa values; Acidic (second)): 10.24 ± 0.03 | pKa (pKa values; Basic): 6.97 ± 0.01 | hyperalgesia (mouse incisional model): not hyperalgesic | hyperalgesia [1]: protected from hyperalgesia; also recorded: did not experience hyperalgesia | peak plasma concentrations in fasted compared to fed rats ([2]; 10 mg/kg): significantly increased | difference in pharmacokinetic properties fed vs fasted ([2]; 100 mg/kg oral): No statistically significant differences | oral absorption ([2]; fed and fasted rats, 10 and 100 mg/kg): well and rapidly absorbed | median t1-2 ([3]; 10 mg/kg PO): 1.4 h | epimerization (chiral column) ([3]; dog plasma): did not provide any evidence of epimerization | bioavailability ([3]; male, dog, plasma, oral, 10 mg/kg, read-out: mean oral bioavailability): 72% | Tmax ([3]; male, dog, plasma, 3 mg/kg IV): ~5 min | Cmax ([3]; male, dog, plasma, 10 mg/kg PO): 12000 ng/mL | Tmax ([3]; male, dog, plasma, 10 mg/kg PO): ~60 min | bioavailability ([3]; male, dog, plasma, read-out: oral bioavailability range): 56 to 91% | AUC(0-t) [4, 7]: 582 µg·h/mL | Cmax [4, 7]: 152 µg/mL | half-life [4, 7]: 78 min | AUC(0-t) [4, 8]: 411 µg·h/mL | Cmax [4, 8]: 103 µg/mL | half-life [4, 8]: 90 min | AUC(0-t) [4, 9]: 834 µg·h/mL | Cmax [4, 9]: 228 µg/mL | half-life [4, 9]: 72 min | AUC(0-t) [4, 10]: 738 µg·h/mL | Cmax [4, 10]: 207 µg/mL | Tmax [4, 10]: 0.5 h | half-life [4, 10]: 144 min | AUC(0-t) [4, 11]: 464 µg·h/mL | Cmax [4, 11]: 109 µg/mL | Tmax [4, 11]: 1 h | AUC(0-t) [4, 12]: 751 µg·h/mL | Cmax [4, 12]: 183 µg/mL | half-life [4, 12]: 150 min | AUC(0-t) [4, 13]: 538 µg·h/mL | Cmax [4, 13]: 150 µg/mL | half-life [4, 13]: 66 min | AUC(0-t) [4, 14]: 540 µg·h/mL | Tmax [4, 14]: 1 h | half-life [4, 14]: 84 min | AUC(0-t) [4, 15]: 613 µg·h/mL | Cmax [4, 15]: 176 µg/mL | half-life [4, 15]: 66 min | AUC(0-t) [4, 16]: 591 µg·h/mL | Cmax [4, 16]: 184 µg/mL | Tmax [4, 16]: 1 h | half-life [4, 16]: 72 min | AUC(0-t) [4, 17]: 657 µg·h/mL | Cmax [4, 17]: 167 µg/mL | half-life [4, 17]: 72 min | AUC(0-t) [4, 18]: 210 µg·h/mL | Cmax [4, 18]: 69 µg/mL | Tmax [4, 18]: 1 h | half-life [4, 18]: 78 min | stability in hepatocytes ([5]; dog, mono-hydrochloride): stable; also recorded: showed metabolic stability | stability in hepatocytes ([5]; human, mono-hydrochloride): stable; also recorded: showed metabolic stability | stability in hepatocytes ([5]; monkey): showed metabolic stability | stability in hepatocytes ([5]; rat, mono-hydrochloride): stable; also recorded: showed metabolic stability | stability in plasma (Stability in plasma; dog): stable | stability in plasma (Stability in plasma; human): stable | stability in plasma (Stability in plasma; rat): stable | stability in plasma [6]: stable | concentration at 1 h (in vivo; female, Sprague Dawley (CD IGS, Crl:CD(SD)), Compound 1 Concentration in rat plasma, Female, 100 mg/kg single PO, Average): 60.1 µg/mL | concentration at 2 h (in vivo; female, Sprague Dawley (CD IGS, Crl:CD(SD)), Compound 1 Concentration in rat plasma, Female, 100 mg/kg single PO, individual animals): 58200 ng/mL | concentration at 4 h (in vivo; female, Sprague Dawley (CD IGS, Crl:CD(SD)), Compound 1 Concentration in rat plasma, Female, 100 mg/kg single PO, 4 h post-dose, Average): 22600 ng/mL | concentration at 0.5 h (in vivo; [19]): 34300 ng/mL | concentration at 1 h (in vivo; [19]): 53.9 µg/mL | Cmax (in vivo; [20]): 60000 ng/mL | half-life (in vivo; [20]): 240 min | concentration at 0.5 h (in vivo; [21]): 13800 ng/mL | concentration at 1 h (in vivo; [22]): 14.9 µg/mL | concentration at 2 h (in vivo; [22]): 14300 ng/mL | concentration at 2 h (in vivo; [21]): 16300 ng/mL | concentration at 8 h (in vivo; male, Sprague Dawley, Compound 1 Concentration in rat plasma, 100 mg/kg single PO, 8 h post-dose, individual animals): 1610 ng/mL | Cmax (in vivo; [23]): 15000 ng/mL | Tmax (in vivo; [23]): 1 h | half-life (in vivo; [23]): 420 min | IC50 (BCRP): > 30 µM | transporter inhibition (BCRP; BCRP): modestly inhibits
